In patent US8318772B2, “Amine compounds and medical uses thereof” (Institute of Pharmacology and Toxicology Academy of …, priority 2008, dated 2012):

Columns and labels:
tail suspended mice [1] = assay: Tail suspension test in mice; type: in vivo, Male ICR mice; conditions: 30 min before test, last 4 min of 6 min
Text: Male ICR mice (SPF grade) weighing 18-22 g each was suspended by […] separately at 1 cm from the end of the tail with a clamp attached to a rope at the center of top plate of a 25×25×25 cm tail suspension box, and the head is away from the box bottom by 4-5 cm. […] The results of antidepressant effects of the target compounds administrated via intraperitoneal injection as determined by the tail suspension test in mice are given in Table 1. In the tail-suspended model of mice, the antidepressant effect was evaluated by observing the immobility time of the tail-suspended mice, and the shorter the immobility time, the stronger the antidepressant effect.

forced swim mice = assay: Forced swim test in mice; type: in vivo, ICR mice; conditions: for Immobility time: last 4 min of 6 min
Method: Mail ICR mice (SPF grade) weighing 18-22 g were placed in a glass jar (diameter 10 cm, and height 20 cm) with water 10 cm in depth and a temperature of 25° C., observed for 6 min, and the accumulated immobility time of mice (i.e., the time that the animal has no motion or a slight motion in its hind limbs, but maintains body floated without motion) during the last 4 min was recorded. The mice were administrated with the compound to be tested and Duloxetine as the positive control drug via intraperitoneal injection at 30 min before the test or via intragastric administration at 60 min before the test.
In the forced swim model of mice, the antidepressant effect was evaluated to by observing the immobility time of the forced swim mice, and the shorter the immobility time, the stronger the antidepressant effect.

tail suspended mice [2] = assay: Tail suspension test in mice; type: in vivo, Male ICR mice; conditions: for Immobility time: last 4 min of 6 min
[3] = 2.5 mg/kg i.p., 30 min before test
[4] = 5 mg/kg i.g., 60 min before test
[5] = 5 mg/kg i.p., 30 min before test
[6] = 10 mg/kg i.g., 60 min before test
[7] = 10 mg/kg i.p., 30 min before test
[8] = 20 mg/kg i.g., 60 min before test
[9] = 20 mg/kg i.p., 30 min before test

Row | Compound | melting point [°C] | Immobility time (tail suspended mice [1]; 2.5 mg/kg i.p.) [s] | Immobility time (tail suspended mice [1]; 5 mg/kg i.p.) [s] | Immobility time (tail suspended mice [1]; 10 mg/kg i.p.) [s] | Immobility time (tail suspended mice [1]; 20 mg/kg i.p.) [s] | Immobility time (forced swim mice; [3]) [s] | Immobility time (forced swim mice; [5]) [s] | Immobility time (forced swim mice; [7]) [s] | Immobility time (forced swim mice; [9]) [s] | other results
1 | CN(C)CCC(Oc1cccc2c1OCO2)c1cccs1.O=C(O)C(=O)O (stereo not shown) [Compound I1, N,N-dimethyl-3-[(benzo[1,3]dioxolan-4-yl)-oxy]-3-(thiophen-2-yl)-propylamine.oxalate] | 85 to 88 | 38.2 ± 32.5 | 20.2 ± 17.1 | 6.2 ± 7.4 | 2.0 ± 6.3 | 148.7 ± 40.3 | 86.7 ± 44.7 | 54.6 ± 44.0 | 18.6 ± 15.7 | –
2 | CNCC[C@H](Oc1cccc2ccccc12)c1cccs1 [Duloxetine, reference compound] | – | – | – | – | – | – | – | – | 96.7 to 135.4 | Immobility time (forced swim mice; 40 mg/kg i.g., 60 min before test): 60.5 ± 44.1 s; Immobility time (tail suspended mice [2]; [6]): 81.0 ± 44.7 s; Immobility time (tail suspended mice [2]; [7]): 35.9 to 49.2 s
3 | CN(C)CCC(Oc1cccc2c1OCCO2)c1cccs1.O=C(O)C(=O)O (stereo not shown) | 89 to 92 | – | – | – | – | – | – | – | – | –
4 | O=C(O)C(=O)O.c1csc(C(CCN2CCCCC2)Oc2cccc3c2OCO3)c1 (stereo not shown) | 118 to 120 | – | – | – | – | – | – | – | – | –
5 | CNCCC(Oc1cccc2c1OCCO2)c1cccs1.O=C(O)C(=O)O (stereo not shown) | 128 to 131 | – | – | – | – | – | – | – | – | –
6 | O=C(O)C(=O)O.c1csc(C(CCN2CCCC2)Oc2cccc3c2OCO3)c1 (stereo not shown) | 105 to 108 | – | – | – | – | – | – | – | – | –

The next lines start with results.

Row | melting point [°C] | Compound | Immobility time (tail suspended mice [1]; 2.5 mg/kg i.p.) [s] | Immobility time (tail suspended mice [1]; 5 mg/kg i.p.) [s] | Immobility time (tail suspended mice [1]; 10 mg/kg i.p.) [s] | Immobility time (tail suspended mice [1]; 20 mg/kg i.p.) [s] | Immobility time (forced swim mice; [3]) [s] | Immobility time (forced swim mice; [5]) [s] | Immobility time (forced swim mice; [7]) [s] | Immobility time (forced swim mice; [9]) [s] | other results
7 | 120 to 123 | CNCCC(Oc1cccc2c1OCO2)c1cccs1.O=C(O)C(=O)O (stereo not shown) [Compound I2] | 35.0 ± 30.0 | 20.8 ± 32.1 | 1.9 ± 4.0 | 2.5 ± 4.1 | 113.6 ± 47.4 | 119.4 ± 47.0 | 86.1 ± 36.5 | 43.1 ± 37.1 | Immobility time (forced swim mice; [4]): 104.1 ± 39.7 s; Immobility time (forced swim mice; [6]): 83.7 ± 34.2 s; Immobility time (forced swim mice; [8]): 60.1 ± 33.8 s; antidepressant effect compared with Duloxetine (in words) (forced swim mice; i.g., I2 20 mg/kg vs Duloxetine 40 mg/kg): comparable to that of Duloxetine at the dose of 40 mg/kg; effect on immobility time (in words) (forced swim mice; intragastric administration, Table 4): significantly shorten the immobility time; Immobility time (tail suspended mice [2]; [4]): 66.1 ± 44.9 s; Immobility time (tail suspended mice [2]; [6]): 51.8 ± 36.0 s; Immobility time (tail suspended mice [2]; [8]): 22.0 ± 16.9 s; effect compared with duloxetine (in words) (tail suspended mice [2]; i.g., I2 5 mg/kg vs duloxetine 10 mg/kg): remarkably greater than that of duloxetine at the dose of 10 mg/kg; effect on immobility time (in words) (tail suspended mice [2]; intragastric administration, Table 2): significantly shorten the immobility time
8 | 130 to 133 | CNCCC(Oc1cccc2c1OCO2)c1ccco1.O=C(O)C(=O)O (stereo not shown) [Compound I7, N-methyl-[3-(benzo[1,3]dioxolan-4-yl-oxy)-3-(furan-2-yl)]propylamine.oxalate] | 30.7 ± 44.1 | 21.9 ± 21.5 | 33.3 ± 31.2 | 0.3 ± 0.95 | 94.3 ± 55.3 | 78.9 ± 43.1 | 70.9 ± 33.0 | 28.4 ± 35.8 | –
9 | 97 to 101 | CN(C)CCC(Oc1cccc2c1OCO2)c1ccco1.O=C(O)C(=O)O (stereo not shown) [Compound I6, N,N-dimethyl-[3-(benzo[1,3]dioxolan-4-yl-oxy)-3-(furan-2-yl)]-propylamine.oxalate] | 51.2 ± 34.3 | 53.9 ± 46.9 | 22.5 ± 28.1 | 11.9 ± 16.8 | 92.4 ± 39.2 | 96.5 ± 43.3 | 108.2 ± 46.7 | 61.2 ± 44.5 | –
10 | 101 to 103 | CN(C)CCC(Oc1cccc2c1OCCO2)c1ccco1.O=C(O)C(=O)O (stereo not shown) | – | – | – | – | – | – | – | – | –
